Test results from publication PMC10952572, “Improved PIEZO1 agonism through 4‐benzoic acid modification of Yoda1” (British Journal of Pharmacology, 2023).
Entries after “also recorded” stand apart in the source; their conditions may differ.

Assays:
[1] = target: T1, Human recombinant prostanoid EP4 receptors (Homo sapiens, UniProt P35408); test: Eurofins Hit Profiling Screen PP70: prostanoid EP4 receptor binding; settings: 5 μM
T1 construct: host or cells: Chem-1 cells
Method: (§1) These experiments were performed by Eurofins Scientific, and the methods below are from this company's information. Membrane protein/membrane amounts may have varied, and the concentrations used were adjusted as necessary. KC289 was tested at 5 μM.
Human recombinant prostanoid EP4 receptors expressed in Chem‐1 cells were used in modified MES buffer pH 6.0. A 3 μg·ml^−1 (see footnote 1) aliquot was incubated with 1 nM [^3H]PGE2 for 120 min at 25°C. Non‐specific binding was estimated in the presence of 10 μM PGE2 . Receptors were filtered and washed, and the filters were then counted to determine [^3H]PGE2 specifically bound.

[2] = target: T2, human adenosine A2A receptors (Homo sapiens, UniProt P29274); test: Eurofins Hit Profiling Screen PP70: adenosine A2A receptor binding; settings: 5 μM
T2 construct: host or cells: HEK 293 membranes
Method: as §1
This assay measured binding of [^3H]CGS‐21680 to human adenosine A2A receptors. HEK 293 cells stably transfected with a plasmid encoding the human adenosine A2A receptor were used to prepare membranes in modified Tris–HCl pH 7.4 buffer using standard techniques. A 15 μg aliquot of membrane was incubated with […] [^3H]CGS‐21680 for 90 min at 25°C. Non‐specific binding was estimated in the presence of 50 μM NECA. Membranes were filtered and washed three times, and the filters were counted to determine [^3H]CGS‐21680 specifically bound.

mouse PIEZO2 (mPIEZO2) = system: mouse PIEZO2 (mPIEZO2); parameters: method as in Syeda et al., 2015; settings: mPIEZO2 overexpressed in HEK 293 cells; ref Syeda et al., 2015; cited from earlier work
mPIEZO1 = target: T3, mPIEZO1 (Mus musculus, UniProt E2JF22); test: Manual whole-cell patch clamp on mPIEZO1-TREx cells; type: cell-based; settings: 10 μM, ramp −100 to +100 mV
T3 construct: expressed in transfected cells
Method: (§2) For manual patch clamp, macroscopic transmembrane ionic currents of mPIEZO1 HEK‐TREx cells (or control HEK‐TREx cells) were recorded using the standard whole‐cell configuration for patch clamp in voltage‐clamp mode. For studies of HEK 293 cells overexpressing PIEZO2 (or control HEK 293 cells), the outside‐out patch configuration was used in voltage‐clamp mode. All recordings were made using an Axopatch 200B amplifier (Axon Instruments, Inc., USA) equipped with Digidata 1550B hosted by a PC running pClamp 10.7 software (Molecular Devices, USA) at room temperature. The cells were maintained during the experiment in an external salt buffer solution (SBS) of the following composition: 135 mM NaCl, 5 mM KCl, 1.5 mM CaCl2, 1.2 mM MgCl2, 8 mM D‐glucose and 10 mM HEPES (titrated to pH 7.4 with NaOH). […] For outside‐out experiments, Na2ATP and Na2GTP were omitted. For whole‐cell experiments, cells were held at 0 mV and current amplitude was monitored by application of ramp voltage protocol from −100 to +100 mV at 10 s intervals. Currents were measured at −100 and +100 mV. Test compounds were applied in the external solution using a bath perfusion system. SBS flow was applied to the cells for 1 min before the addition of compounds. […] Data were analysed and plotted using pClamp 10.7 and Microcal Origin 2018 (Microcal Software, USA).

[3] = system: HEK‐TREx control (null) cells; test: Manual whole-cell patch clamp on control cells; type: cell-based, human; settings: 10 μM, HEK-TREx cells without PIEZO1 transfection
Method: as §2

T1 sequence (P35408 whole entry): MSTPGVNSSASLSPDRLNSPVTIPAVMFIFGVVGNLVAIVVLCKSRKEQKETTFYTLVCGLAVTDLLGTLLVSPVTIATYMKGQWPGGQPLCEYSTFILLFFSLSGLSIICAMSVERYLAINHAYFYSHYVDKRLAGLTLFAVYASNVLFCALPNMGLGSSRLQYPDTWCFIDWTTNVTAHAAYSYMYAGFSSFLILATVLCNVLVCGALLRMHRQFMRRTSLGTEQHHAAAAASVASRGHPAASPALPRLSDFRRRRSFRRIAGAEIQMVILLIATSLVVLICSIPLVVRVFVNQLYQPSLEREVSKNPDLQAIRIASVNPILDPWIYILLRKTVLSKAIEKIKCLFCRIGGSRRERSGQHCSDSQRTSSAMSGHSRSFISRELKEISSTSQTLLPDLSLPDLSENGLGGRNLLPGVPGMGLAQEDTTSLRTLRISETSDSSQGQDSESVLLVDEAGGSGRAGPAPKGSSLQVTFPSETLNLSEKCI
T3 sequence (E2JF22 whole entry): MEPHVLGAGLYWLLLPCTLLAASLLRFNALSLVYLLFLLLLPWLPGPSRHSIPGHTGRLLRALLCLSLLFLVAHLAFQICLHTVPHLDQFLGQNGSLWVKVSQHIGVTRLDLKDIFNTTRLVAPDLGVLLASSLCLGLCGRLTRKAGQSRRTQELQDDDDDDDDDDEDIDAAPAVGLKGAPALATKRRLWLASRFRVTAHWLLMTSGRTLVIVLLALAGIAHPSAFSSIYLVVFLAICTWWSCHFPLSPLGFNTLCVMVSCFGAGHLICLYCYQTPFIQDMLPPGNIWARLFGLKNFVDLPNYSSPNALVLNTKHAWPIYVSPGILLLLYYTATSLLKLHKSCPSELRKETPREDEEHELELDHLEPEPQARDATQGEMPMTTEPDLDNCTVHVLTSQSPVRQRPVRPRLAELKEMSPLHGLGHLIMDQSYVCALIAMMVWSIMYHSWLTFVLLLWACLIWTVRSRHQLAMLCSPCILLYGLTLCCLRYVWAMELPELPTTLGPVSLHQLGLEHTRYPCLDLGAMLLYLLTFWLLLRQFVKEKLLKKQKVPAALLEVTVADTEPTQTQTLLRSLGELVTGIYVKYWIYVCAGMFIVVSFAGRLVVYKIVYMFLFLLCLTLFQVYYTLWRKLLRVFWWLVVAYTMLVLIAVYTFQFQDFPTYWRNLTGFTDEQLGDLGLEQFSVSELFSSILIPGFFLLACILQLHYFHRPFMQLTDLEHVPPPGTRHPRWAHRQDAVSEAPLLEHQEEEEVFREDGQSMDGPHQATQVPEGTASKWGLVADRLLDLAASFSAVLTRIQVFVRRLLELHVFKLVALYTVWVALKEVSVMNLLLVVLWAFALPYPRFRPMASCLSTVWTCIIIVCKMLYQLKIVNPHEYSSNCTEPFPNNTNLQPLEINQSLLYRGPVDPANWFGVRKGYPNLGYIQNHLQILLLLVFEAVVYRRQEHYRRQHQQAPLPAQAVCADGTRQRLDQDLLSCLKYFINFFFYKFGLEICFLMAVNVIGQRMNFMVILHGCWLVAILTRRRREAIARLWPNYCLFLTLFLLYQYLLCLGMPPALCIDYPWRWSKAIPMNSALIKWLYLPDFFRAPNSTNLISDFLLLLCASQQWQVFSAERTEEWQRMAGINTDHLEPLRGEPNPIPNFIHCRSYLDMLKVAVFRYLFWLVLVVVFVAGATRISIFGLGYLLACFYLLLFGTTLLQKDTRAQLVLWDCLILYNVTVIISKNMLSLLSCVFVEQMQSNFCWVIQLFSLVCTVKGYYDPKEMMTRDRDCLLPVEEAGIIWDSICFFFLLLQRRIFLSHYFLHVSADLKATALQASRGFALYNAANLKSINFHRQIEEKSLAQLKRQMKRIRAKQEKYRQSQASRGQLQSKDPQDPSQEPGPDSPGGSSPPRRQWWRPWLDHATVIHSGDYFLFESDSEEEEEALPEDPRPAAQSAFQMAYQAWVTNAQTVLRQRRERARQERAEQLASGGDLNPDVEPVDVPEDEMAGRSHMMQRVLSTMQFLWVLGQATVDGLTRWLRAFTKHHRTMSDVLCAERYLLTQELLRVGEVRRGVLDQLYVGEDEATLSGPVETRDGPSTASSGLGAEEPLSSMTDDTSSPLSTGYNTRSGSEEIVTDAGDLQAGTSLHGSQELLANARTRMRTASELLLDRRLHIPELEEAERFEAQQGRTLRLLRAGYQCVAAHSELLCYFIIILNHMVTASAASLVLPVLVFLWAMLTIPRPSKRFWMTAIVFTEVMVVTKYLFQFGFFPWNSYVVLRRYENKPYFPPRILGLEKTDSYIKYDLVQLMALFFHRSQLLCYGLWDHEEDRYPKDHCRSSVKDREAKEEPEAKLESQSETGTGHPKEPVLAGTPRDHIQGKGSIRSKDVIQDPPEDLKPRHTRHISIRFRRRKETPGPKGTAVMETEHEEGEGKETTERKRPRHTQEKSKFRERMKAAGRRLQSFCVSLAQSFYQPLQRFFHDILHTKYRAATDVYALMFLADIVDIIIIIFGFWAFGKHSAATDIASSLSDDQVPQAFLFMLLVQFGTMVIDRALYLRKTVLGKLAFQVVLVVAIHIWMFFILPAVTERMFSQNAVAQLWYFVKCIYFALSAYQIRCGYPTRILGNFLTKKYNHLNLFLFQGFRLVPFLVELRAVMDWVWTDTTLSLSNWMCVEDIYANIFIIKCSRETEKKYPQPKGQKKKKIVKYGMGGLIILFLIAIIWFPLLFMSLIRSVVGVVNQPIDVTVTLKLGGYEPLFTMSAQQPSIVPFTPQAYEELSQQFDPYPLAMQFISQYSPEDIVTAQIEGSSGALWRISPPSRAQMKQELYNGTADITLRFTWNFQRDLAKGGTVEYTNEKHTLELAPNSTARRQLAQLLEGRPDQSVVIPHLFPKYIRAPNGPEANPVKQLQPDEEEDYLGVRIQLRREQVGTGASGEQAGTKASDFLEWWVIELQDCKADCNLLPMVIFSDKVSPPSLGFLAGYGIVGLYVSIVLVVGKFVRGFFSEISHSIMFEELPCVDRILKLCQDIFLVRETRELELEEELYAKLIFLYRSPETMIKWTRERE
T2 sequence (P29274 whole entry): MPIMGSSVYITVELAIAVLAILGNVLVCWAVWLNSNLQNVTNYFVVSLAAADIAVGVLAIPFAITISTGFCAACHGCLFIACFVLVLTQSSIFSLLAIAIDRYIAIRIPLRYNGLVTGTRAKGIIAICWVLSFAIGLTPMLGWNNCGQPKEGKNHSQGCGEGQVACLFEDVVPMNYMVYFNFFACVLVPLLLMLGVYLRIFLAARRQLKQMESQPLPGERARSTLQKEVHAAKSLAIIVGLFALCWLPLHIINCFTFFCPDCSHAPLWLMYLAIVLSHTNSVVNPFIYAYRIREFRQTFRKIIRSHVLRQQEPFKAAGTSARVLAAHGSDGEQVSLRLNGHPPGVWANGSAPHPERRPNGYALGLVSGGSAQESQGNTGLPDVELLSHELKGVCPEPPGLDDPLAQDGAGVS

O=C([O-])c1ccc(-c2nnc(SCc3c(Cl)cccc3Cl)s2)cc1.[K+] [KC289]
Binding to prostanoid EP4 receptors [1]: modest interaction | Binding to adenosine A2A receptors [2]: modest interaction

Clc1cccc(Cl)c1CSc1nnc(-c2cnccn2)s1 [Yoda1, 2‐[5‐[[(2,6‐dichlorophenyl)methyl]thio]‐1,3,4‐thiadiazol‐2‐yl]pyrazine]
Activation of PIEZO2 (mouse PIEZO2 (mPIEZO2)): does not activate; also recorded: not to activate

O=C(O)c1ccc(-c2nnc(SCc3c(Cl)cccc3Cl)s2)cc1 [KC159]
Whole-cell current (mPIEZO1): increases current | Whole-cell current in null cells [3]: not null cells
